For assay [1], the system named is K562 erythroleukemia cells transduced with shRPS19. The assay is described as follows: Autophagy induction (p62, LC3-I, LC3-II protein levels) in K562 cells transduced with shRPS19. It is filed as cell-based, human. The settings on record: 5-FU 100 nM. As for the experimental part: (FIG. 13A) Induction of autophagy by SMER28 (40 μM) monitored by protein levels of p62, LC3-I, and LC3-II after 24 hours. Cells were also treated with 5-FU (100 nM) to induce autophagy, or inhibitor of transcription actinomycin D (ActD; 100 nM). (FIG. 13B) Induction of autophagy by SMER28 (40 μM) monitored by protein levels of p62, LC3-I, and LC3-II after 24 hours treatment with or without lysosomal blockade with bafilomycin A (200 nM for 4 hours). Untreated samples are shown at higher exposure, to capture dynamic changes in the LC3-II levels. Rapamycin (200 nM) is a positive control. LC3-II levels relative to GAPDH are quantitated on the right. (FIG. 13C) Erythroid differentiation of CD34-5F cells transduced with shRNAs for luciferase (LUC) or ATG5±SMER28. Representative flow plots and quantitation showing the number of erythroid cells induced by SMER28 (10 μM) normalized to DMSO. 2 control luciferase shRNAs and 2 ATG5 shRNAs are included (knockdown efficiency in hematopoietic cells of 58% and 50%, respectively), each with 2 independent lines; p=0.005, 3 independent experiments. (FIG. 13D) Atg5 deficiency causes anemia in zebrafish. Wild-type zebrafish embryos were treated with 1.6 ng atg5 or missense morpholino, and hemoglobin staining was visualized with benzidine staining at 40 hpf with SMER28 (1 μM). Representative images (left), and quantitation (right) with embryos grouped by high, medium, and low levels of benzidine staining.
SMER28 was identified as an mTOR-independent inducer of autophagy, by synergizing with rapamycin to promote clearance of protein aggregates in models of neurodegenerative disease (Sarkar et al., 2007; Tian et al., 2011). Autophagy is a pro-survival pathway induced by a variety of stresses, such as nutrient limitation or protein aggregation. Autophagy is required for clearance of mitochondria during terminal erythroid maturation (Mortensen and Simon, 2010), but has not been linked with earlier stages of erythropoiesis. To determine if SMER28 modulates autophagy in erythroid cells, we interrogated the levels of p62 and LC3 in K562 erythroleukemia cells transduced with shRPS19. SMER28 reduced p62 and increased the levels of […] LC3-II isoform associated with autophagosomes (FIG. 13A). […] To measure autophagic flux, we monitored LC3-II levels after blocking lysosomal fusion with bafilomycin A. SMER28 increased LC3-II levels following lysosomal blockade, similarly to the mTOR inhibitor rapamycin (FIG. 13B).
Drug treatments. SMER28 was purchased from Tocris and diluted in 10 mM aliquots in DMSO. The final concentration for CD34-5F and CB CD34^+erythroid treatments was 0.2-10 μM as indicated in the text. The final concentration for K562 cell treatments was 20-40 μM. […]

The subject of another assay is CB CD34+ cells. It is filed as in vivo, NSG mice. The conditions noted are these: 1 mg/kg Dex (sodium-phosphate) for 4 weeks; p=0.04. As for the experimental part: (FIG. 10A) SMER28 rescues RBC output in rps29^+/− zebrafish embryos. The level of hemoglobin in the yolk sac was visualized 40hpf with benzidine staining. Images are representative of the proportion of embryos indicated (of total counted). (FIG. 10B) Quantitation of SMER28 rescue for a range of 0.1-1 μM, with embryos grouped by high, medium, and low levels of hemoglobin staining. (FIG. 10C) Peripheral blood (PB) RBC counts and hematocrit in mice with irradiation-induced anemia. Mice were treated with the PEG400-based vehicle containing DMSO (VEH) (n=11), 1 mg/kg Dex (sodium-phosphate) (n=13), or 10 mg/kg SMER28 (n=9) for 3 weeks, bled, and assessed. Data are combined from 3 independent experiments. (FIG. 10D) Erythroid cells as proportion of the human graft in mice transplanted with DBA CD34-5F progenitors, and treated as in (FIG. 1c). (FIG. 10E) Levels of human engraftment in NSG mouse bone marrow (BM) transplanted with CB CD34^+ cells. Mice were treated with DMSO plus vehicle (VEH) (n=10), 1 mg/kg Dex (sodium-phosphate) (n=6), or 2 mg/kg SMER28 (n=11) for 4 weeks. (FIG. 10F) The proportion of erythroid, myeloid, and lymphoid (B cells) lineages within the human graft in vehicle- and SMER28-treated mice transplanted with CB CD34^+ cells. Only the effect on the erythroid lineage was significant. Data in FIGS. 10E-10G are pooled from 2 independent experiments. For all panels, *p<0.05, * *p<0.01.
Drug treatments. SMER28 was purchased from Tocris and diluted in 10 mM aliquots in DMSO. The final concentration for CD34-5F and CB CD34^+erythroid treatments was 0.2-10 μM as indicated in the text. The final concentration for K562 cell treatments was 20-40 μM. Ferric citrate (1-50 μM) and deferoxamine (100-200 μM) (Sigma) were dissolved in PBS and added on days 0-4 of “expansion” culture, and washed off prior to erythroid stage I (days 4-9) differentiation. For in vivo experiments, SMER28 aliquots were diluted in vehicle solution: 30% PEG-400, 5% propylene glycol, and 0.5% Tween-80. Dosing for human xenograft experiments was 2 mg/kg; for mouse models 10-20 mg/kg. Dexamethasone was purchased as Dex-sodium phosphate (DexSP) water-soluble formulation (Santa Cruz), and diluted in PBS vehicle (1 mg/kg). NSG mice were sub-lethally irradiated at 275 rads, and administered 100 μl of drug or vehicle by oral gavage daily.

Assay [2] deals with CD71+ cells in a erythroid cell population. Put plainly: Percentage of CD71+ cells in an erythroid cell population in vitro. The settings on record: between 5-20 μM in vitro. Format: cell-based. From the text: Accordingly, in some embodiments, an autophagy activator as disclosed herein can be administered to a subject according to the methods as disclosed herein in an effective dose to increase the levels of CD71+ cells in an erythroid cell population obtained from the subject by at least about 1%, at least about 2%, at least about 3%, at least about 5%, at least about 10%, at least about 15%, least about 20%, at least about 30%, at least about 40%, at least about 50%, or more than 50%, as compared to in the absence of an autophagy activator.

With `O=c1[nH]cc(F)c(=O)[nH]1` [5-fluorouracil, reference compound], the “conversion of cytosolic LC3-I into LC3-II” value in assay [1] is recorded as “induced”. Turning to `C[C@@H]1C[C@H]2[C@@H]3CCC4=CC(=O)C=C[C@]4(C)[C@@]3(F)[C@@H](O)C[C@]2(C)[C@@]1(O)C(=O)CO` [Dex, Dexamethasone, reference compound], in the assay on CB CD34+ cells, the “RBC output as proportion of human graft” value came to 10.4%. As to `CN1CCN(CCCN2c3ccccc3Sc3ccc(C(F)(F)F)cc32)CC1` [TFP], in assay [2], the “percentage of CD71+ cells” value is “restored”.

The values above are taken from US11980620B2, “Compounds and methods for treatment of Diamond Blackfan anemia” (THE CHILDREN'S MEDICAL CENTER CORPORATION, priority 2017, dated 2024).
